Read-outs that look alike come from different tables or passages of the source. Marks after values point to notes of the source that are not given here.
Key:
healthy volunteers [1] = conditions: for AEs grade 1–2 CTCAE, % / AEs grade 3 CTCAE: ↑CK, % / Gastrointestinal disorders, % / Investigations, % / ↑ALT (%) / ↑CK (%) / ↓WBC (%) / SAEs: seizure (%) / Diarrhea, %: number of subjects (%); for Diarrhea, %: grade 1–2
[2] = tested on: stem cells derived from patients with CML‐BC or Philadelphia chromosome–positive acute lymphoblastic leukemia; conditions: in combination with tyrosine kinase inhibitors; cited from earlier work
mouse model of CML‐BC = conditions: cited from earlier work
[3] = First-in-human pharmacokinetics in healthy volunteers; assay type: in vivo; conditions: for Mean t1/2 / AUC(0-inf) / AUC(0-t) / Cmax / Tmax / Vd/F: healthy volunteers; for Mean t1/2 / AUC(0-inf) / AUC(0-t) / Cmax / Tmax / half-life / Vd/F: [SD]; for AUC(0-inf) / AUC(0-t) / Cmax / Tmax / half-life / Vd/F: human, plasma, po; for AUC(0-inf): Mean AUC0−inf; for AUC(0-t): Mean AUC0−t; for Cmax: Mean Cmax; for Tmax: Mean Tmax; for half-life: Mean t1/2, healthy volunteers
Plasma protein binding = assay type: in vitro ADME, human, dog
phosphodiesterase 3 = test: Phosphodiesterase 3 activity; assay type: biochemical; conditions: read-out: IC50, phosphodiesterase 3
[4] = In vitro induction of chromosome aberrations; assay type: cell-based
rat = test: In vivo micronucleus test in rat
[5] = tested on: pro‐inflammatory cytokines, chemokines, and growth factors; conditions: in vivo; cited from earlier work
4-week study in dogs = assay type: in vivo, dog; conditions: dog
dogs [6] = test: 4-week study in dogs; assay type: in vivo, dog; conditions: dogs
dogs [7] = test: Single oral dose-escalation study in dogs; assay type: in vivo, dog; conditions: at 30 mg/kg/day
bacteria = test: Bacterial reverse mutation assay; assay type: cell-based
[8] = tested on: plasma cytokines, chemokines, and growth factors; assay type: in vivo, human; conditions: IL‐1β, IL‐2, IL‐4, IL‐6, IL‐8, IFNγ, TNFα; IL‐15, IL‐17A; MCP‐1, and IP‐10
healthy volunteers [9] = test: Intensive ECG monitoring in healthy volunteers; assay type: in vivo, human
[10] = 10 mg single dose FASTED (N = 16)
[11] = 20 mg single dose FASTED (N = 14)
[12] = 10 mg, oral 10 mg single dose FASTED (N = 16)
[13] = 10 mg, oral 10 mg single dose FED (N = 9)
[14] = 20 mg, oral 20 mg single dose FASTED (N = 14)

**Q.** Which “serious adverse events related to ETC‐206” value (healthy volunteers [1]; general safety) does the source give for N#Cc1ccc(-c2cnc3ccc(-c4ccc(C(=O)N5CCOCC5)cc4)cn23)cc1 [ETC‐206] here?
**A.** The value was “did not show any serious adverse events”.

**Q.** What about the “AEs grade 1–2 CTCAE, %” value (healthy volunteers [1]; [10]) of the same compound?
**A.** The value was 9 (56).

**Q.** And the “AEs grade 3 CTCAE: ↑CK, %” value (healthy volunteers [1]; [10])?
**A.** Its value is 0.

**Q.** And the “Gastrointestinal disorders, %” value (healthy volunteers [1]; [10])?
**A.** The value was 4 (25).

**Q.** And the “Investigations, %” value (healthy volunteers [1]; [10])?
**A.** Its value is 5 (31).

**Q.** What about the “↑ALT (%)” value (healthy volunteers [1]; [10]) of the same compound?
**A.** Its value is 1 (6).

**Q.** What about the “↑CK (%)” value (healthy volunteers [1]; [10]) of the same compound?
**A.** The value was 1 (6).

**Q.** What about the “↓WBC (%)” value (healthy volunteers [1]; [10]) of the same compound?
**A.** The value was 3 (19).

**Q.** And the “SAEs: seizure (%)” value (healthy volunteers [1]; 10 mg single dose FASTED (N = 16), not drug-related)?
**A.** Its value is 1 (6) ^a.

**Q.** And the “AEs grade 1–2 CTCAE, %” value (healthy volunteers [1]; 10 mg single dose FED (N = 9))?
**A.** The value was 9 (100).

**Q.** What about the “AEs grade 3 CTCAE: ↑CK, %” value (healthy volunteers [1]; 10 mg single dose FED (N = 9)) of the same compound?
**A.** Its value is 0.

**Q.** And the “Gastrointestinal disorders, %” value (healthy volunteers [1]; 10 mg single dose FED (N = 9))?
**A.** Its value is 2 (22).

**Q.** What about the “Investigations, %” value (healthy volunteers [1]; 10 mg single dose FED (N = 9)) of the same compound?
**A.** Its value is 1 (11).

**Q.** What about the “SAEs: seizure (%)” value (healthy volunteers [1]; 10 mg single dose FED (N = 9)) of the same compound?
**A.** The value was 0.

**Q.** And the “↑ALT (%)” value (healthy volunteers [1]; 10 mg single dose FED (N = 9))?
**A.** The value was 0.

**Q.** And the “↑CK (%)” value (healthy volunteers [1]; 10 mg single dose FED (N = 9))?
**A.** The value was 0.

**Q.** What about the “↓WBC (%)” value (healthy volunteers [1]; 10 mg single dose FED (N = 9)) of the same compound?
**A.** Its value is 1 (11).

**Q.** What about the “AEs grade 1–2 CTCAE, %” value (healthy volunteers [1]; [11]) of the same compound?
**A.** Its value is 11 (79).

**Q.** And the “Gastrointestinal disorders, %” value (healthy volunteers [1]; [11])?
**A.** The value was 3 (21).

**Q.** What about the “Investigations, %” value (healthy volunteers [1]; [11]) of the same compound?
**A.** The value was 1 (7).

**Q.** What about the “SAEs: seizure (%)” value (healthy volunteers [1]; [11]) of the same compound?
**A.** Its value is 0.

**Q.** And the “↑ALT (%)” value (healthy volunteers [1]; [11])?
**A.** The value was 0.

**Q.** And the “↑CK (%)” value (healthy volunteers [1]; [11])?
**A.** Its value is 0.

**Q.** And the “↓WBC (%)” value (healthy volunteers [1]; [11])?
**A.** The value was 0.

**Q.** And the “AEs grade 3 CTCAE: ↑CK, %” value (healthy volunteers [1]; 20 mg single dose FASTED (N = 14), not drug-related)?
**A.** Its value is 1 (7) ^b.

**Q.** And the “Diarrhea, %” value (healthy volunteers [1]; [10])?
**A.** The value was 3 (19).

**Q.** What about the “Diarrhea, %” value (healthy volunteers [1]; 10 mg single dose FED (N = 9)) of the same compound?
**A.** The value was 2 (22) ^f.

**Q.** And the “Diarrhea, %” value (healthy volunteers [1]; [11])?
**A.** The value was 3 (21) ^g.

**Q.** And the maximum administered dose (healthy volunteers [1]; single dose, fasted, no dose‐limiting toxicity, not the maximum tolerated dose)?
**A.** Its maximum administered dose is 20 mg.

**Q.** And the “survival of stem cells” value [2]?
**A.** Its value is “impeded survival”.

**Q.** And the tumor growth (mouse model of CML‐BC; in combination with tyrosine kinase inhibitors)?
**A.** The tumor growth was “inhibited tumor growth”.

**Q.** And the antitumor activity (mouse model of CML‐BC; single agent)?
**A.** Its antitumor activity is “no antitumor activity”.

**Q.** And the dose proportionality ([3]; 10 to 20 mg single doses in fasted condition)?
**A.** Its dose proportionality is “showed dose proportionality”.

**Q.** What about the “Mean t1/2” value ([3]; oral 10 mg single dose FASTED (N = 16)) of the same compound?
**A.** The value was 22.95 [5.63] hour.

**Q.** What about the “Mean t1/2” value ([3]; oral 10 mg single dose FED (N = 9)) of the same compound?
**A.** Its value is 27.57 [5.68] hour.

**Q.** And the AUC(0-inf) [3, 12]?
**A.** The AUC(0-inf) was 24400 ng·h/mL.

**Q.** What about the AUC(0-inf) [3, 13] of the same compound?
**A.** The AUC(0-inf) was 30000 ng·h/mL.

**Q.** And the AUC(0-t) [3, 12]?
**A.** Its AUC(0-t) is 21900 ng·h/mL.

**Q.** What about the AUC(0-t) [3, 13] of the same compound?
**A.** The AUC(0-t) was 28700 ng·h/mL.

**Q.** What about the Cmax [3, 12] of the same compound?
**A.** Its Cmax is 927 ng/mL.

**Q.** What about the Tmax [3, 12] of the same compound?
**A.** Its Tmax is 1.11 h.

**Q.** What about the half-life [3, 12] of the same compound?
**A.** The half-life was about 23 h.

**Q.** What about the half-life [3, 13] of the same compound?
**A.** Its half-life is about 28 h.

**Q.** And the Vd/F [3, 12]?
**A.** Its Vd/F is 13.9 L.

**Q.** What about the AUC(0-inf) [3, 14] of the same compound?
**A.** The AUC(0-inf) was 60300 ng·h/mL.

**Q.** And the AUC(0-t) [3, 14]?
**A.** The AUC(0-t) was 57800 ng·h/mL.

**Q.** What about the Cmax [3, 14] of the same compound?
**A.** Its Cmax is 1950 ng/mL.

**Q.** What about the Tmax [3, 14] of the same compound?
**A.** The Tmax was 1 h.

**Q.** What about the half-life [3, 14] of the same compound?
**A.** The half-life was 25.8 h.

**Q.** What about the Vd/F [3, 14] of the same compound?
**A.** Its Vd/F is 12.5 L.

**Q.** What about the “plasma protein binding in humans compared with dogs” value (Plasma protein binding) of the same compound?
**A.** Its value is “higher”.

**Q.** What about the IC50 (phosphodiesterase 3) of the same compound?
**A.** Its IC50 is 2.25 µM.

**Q.** And the mutagenicity [4]?
**A.** The mutagenicity was “did not show any mutagenicity”.

**Q.** What about the mutagenicity (rat) of the same compound?
**A.** The mutagenicity was “did not show any mutagenicity”.

**Q.** And the “plasma levels of pro‐inflammatory cytokines, chemokines, and growth factors” value [5]?
**A.** Its value is “decrease plasma levels”.

**Q.** And the NOAEL at 4 weeks (4-week study in dogs; in vivo)?
**A.** Its NOAEL at 4 weeks is 3 mg/kg/day.

**Q.** What about the AUC(0-t) (4-week study in dogs; plasma, 3 mg/kg/day) of the same compound?
**A.** The AUC(0-t) was 7230 ng·h/mL.

**Q.** And the Cmax (4-week study in dogs; plasma, 3 mg/kg/day)?
**A.** The Cmax was 935 ng/mL.

**Q.** What about the “highest unbound mean free fraction AUC0−last at NOAEL” value (dogs [6]) of the same compound?
**A.** Its value is 670 ng·h/mL.

**Q.** What about the “highest unbound mean free fraction Cmax at NOAEL” value (dogs [6]) of the same compound?
**A.** Its value is 11.8 ng/mL.

**Q.** And the bile duct proliferation (dogs [6]; 4 weeks, medium and high doses)?
**A.** Its bile duct proliferation is “minimal to mild”.

**Q.** And the “liver enzymes (ALT, alkaline phosphatase, gamma glutamyltransferase)” value (dogs [6]; 4 weeks, medium and high doses)?
**A.** The value was “increase in liver enzymes”.

**Q.** What about the “cardiovascular parameters (blood pressure, heart rate, cardiac repolarization)” value (dogs [7]) of the same compound?
**A.** The value was “affected cardiovascular (CV) parameters”.

**Q.** And the mutagenicity (bacteria)?
**A.** The mutagenicity was “did not show any mutagenicity”.

**Q.** And the “activity on plasma cytokines, chemokines, and growth factors” value [8]?
**A.** Its value is “did not show any activity”.

**Q.** And the “relationship between ETC‐206 plasma concentrations and changes from baseline of QTcF” value (healthy volunteers [9]; mixed effects regression model, flat slope (P = 0.7) of each dose and condition)?
**A.** The value was “no relationship”.

**Q.** And the proarrhythmic risks (healthy volunteers [9]; range of doses explored (10 and 20 mg single doses))?
**A.** Its proarrhythmic risks is “no evidence for ETC‐206 proarrhythmic risks”.

From article PMC6951458 (Clinical and Translational Science, 2019)
